# Patent US20040106093A1, “Myb-transformed blood cells and their use for active ingredient screening” (priority 2001, published 2004)
# Tests used:
# Format in all cases: cell-based, chicken
# [1] = test system: bFGF/v-myb-cells; test: FGF dose response in cell proliferation assay (MTT / 3H-thymidine incorporation); conditions: for proliferative (mitogenic) response in the presence of heparin: heparin 5 μg/ml, 3H-thymidine incorporation, FIG. 5A; for stimulation of bFGF/v-myb-cell proliferation: serial dilutions starting at 100 ng/ml, without heparin, FIG. 4
# Experimental: (§1) Cell proliferation was measured as ratio of DNA-synthesis by ^3H-thymidin-incorporation or use CellTiter96® (Promega). Briefly, the cells (4×10^4 cells/100 μl) were incubated in CFU-E-Medium (see above) with 0.8 μCi ^3H-thymidine (specific activity 29 Ci/mmol; Amersham, UK) for 2 hours at 37° C., brought onto filter plates and subjected to scintillation counting. The average values from triplicate samples were determined. The Celltiter96 MTS-assay was for 2 hours. Heparin (B. Braun, Melsungen, Germany) was used at 5 μg/ml. Inhibitors were used at the following concentrations: PD98059 (5 μM), PP2 (100 nM), U-73122 (1 μM), Worthmannin (100 nM), Cyclosporin A (10 nM), GF 109203X (10 nM) and KN-62 (1 μM) (all from Calbiochem).
# FGF—dose response measured by cell proliferation assay (MTT). Serial dilutions of aFGF and bFGF, respectively, starting at 100 ng/ml are shown.
# (A) Dose response curve of aFGF and bFGF in the presence or absence of heparin is shown. Cell proliferation was measured by ^3H-thymidine incorporation assay.
# [2] = test system: bFGF/v-myb-cells; test: Proliferation assay of bFGF-stimulated bFGF/v-myb-cells with specific signalling inhibitors (3H-thymidine incorporation); conditions: bFGF 25 ng/ml, FIG. 5B; for effect on bFGF induced bFGF/v-myb cell proliferation: proliferation without inhibitor set 100%, C; for reduction of bFGF induced bFGF/v-myb cell proliferation: GF 109203X 10 nM, Cyclosporin A 10 nM, KN-62 1 μM (methods)
# Experimental: as §1
# (B) The bFGF/v-myb-cells were stimulated with bFGF and with specific inhibitors (for details see methods). Cell proliferation was measured in (A) per cent of proliferation in response to bFGF (25 ng/ml) and specific inhibitor is shown. Proliferation without inhibitor was arbitrarily set 100%.
# (C) Dose response curve of the PLCy inhibitor U-73122 on bFGF/v-myb-cells in the presence of bFGF (25 ng/ml). Cell proliferation was measured by ^3H-thymidine incorporation assay as in (A). Two independent experiments arc shown.
# [3] = test system: bFGF/v-myb-cells; test: Erythroid differentiation assay (anaemic serum plus insulin)
# Experimental: To produce erythroid differentiation, cells were incubated in CFU-E-medium without ChS (2×10^6 cells/ml) supplemented with 3% anaemic chicken serum (as source for erythropoietin) plus 10 ng/ml recombinant human insulin (Novo Nordisk) in the presence or absence of 25 ng/ml bFGF. Erythroid differentiation was assessed by (1) determining haemoglobin accumulation in cytospin preparations that stained with neutral, and Diff-Quik (Baxter, Switzerland), or in haemoglobin assay (Beug et al., 1995, Methods Enzymol, 254, 41-76) (2), measuring reduction in cell size with the CASY-1 Cell Counter and Analyser System; and (3) loss of proliferative potential in ^3H-thymidine incorporation assays. Photographs were taken and processed as above.
# Differentiation properties of bFGF/v-myb erythroid progenitor cells. Kinetics of the different differentiation parameters of bFGF/v-myb-cells. The number of cells, the cell volume, and the amount of haemoglobin were estimated during the 4-day differentiation in absence (AS, Ins) or presence of bFGF (AS, Ins+bFGF) or without factor (no). The cells remaining in bFGF are only shown as a control (bFGF).
# [4] = test system: blastoderm derived bFGF/v-myb-cells; test: Growth factor requirements of blastoderm derived v-myb cells in culture; conditions: bFGF 25 ng/ml, SCF 100 ng/ml, TGFα 5 ng/ml; factor alone; FIG. 2B
# Experimental: Blastoderm-derived cells (2 days incubation, Hamilton-stage HH 10-12) and bone marrow cells ([…]) were cocultivated for 2 days with a mitomycin C-treated virus or control (non-infected)-CEF in a CFU-E-medium (Beug et al., 1995, Methods Enzymol, 254, 41-76) containing bFGF (25 ng/ml, Promega), chicken-SCF (100 ng/ml; Bartunek et al., 1996, Cytokine, 8, 14-20), TGFα (5 ng/ml, Promega) or different combinations thereof, or no factors. After 2 days nonadherent cells were regenerated and cells were grown at 2×10^6 cells/ml. An outgrowth of myb transformed cells was routinely observed at day 5-7 and cell numbers were determined in regular time intervals using the cell counter and analyser system CASY-1 (Scharfe System, Reutlingen, Germany).
# (B) Growth factor requirements of bFGF/v-myb-cells. The cumulative number of cells gown with various factors and combinations thereof are shown. Closed and open symbols refer to cells with an erythroid and myeloid phenotype, respectively.
# [5] = differentiation induction in the presence of bFGF, FIG. 3
compound,measurement,setting,value
"aFGF: acidic FGF, FGF-1, member of the FGF family",proliferative (mitogenic) response in the presence of heparin,[1],clear enhancement
same,stimulation of bFGF/v-myb-cell proliferation,[1],only marginally if at all
COC[C@H]1OC(=O)c2coc3c2[C@@]1(C)C1=C(C3=O)[C@@H]2CCC(=O)[C@@]2(C)C[C@H]1OC(C)=O [Worthmannin],effect on bFGF induced bFGF/v-myb cell proliferation,[2],ineffective
COc1cccc(-c2cc(=O)c3ccccc3o2)c1N [PD 98059],effect on bFGF induced bFGF/v-myb cell proliferation,[2],partially inhibitory only at higher concentrations
COc1ccc2c(c1)CC[C@@H]1[C@@H]2CC[C@]2(C)[C@@H](NCCCCCCN3C(=O)C=CC3=O)CC[C@@H]12 [U-73122],effect on bFGF induced bFGF/v-myb cell proliferation,[2],dramatically reduced
CC1(C)C(C=C(Cl)Cl)C1C(=O)OC(C#N)c1cccc(Oc2ccccc2)c1 (centres unmarked) [cypermethrin],reduction of bFGF induced bFGF/v-myb cell proliferation,[2],45%
bFGF: growth factor bFGF (basis fibroblast growth factor),ability to undergo terminal erythroid differentiation,[3]; differentiation induced by anaemic serum and insulin in the presence of 25 ng/ml bFGF,completely blocked
same,cell volume,[3]; [5],approximately 500 μl
same,haemoglobin accumulation,[3]; [5],did not accumulate haemoglobin
same,proliferative (mitogenic) response in the presence of heparin,[1],no further increase
same,stimulation of bFGF/v-myb-cell proliferation,[1],induced a maximal stimulation
same,phenotype / outgrowth of v-myb cells with growth factor,[4],proliferating erythroid bFGF/v-myb-cells were obtained only in the presence of bFGF
cyclosporine A,reduction of bFGF induced bFGF/v-myb cell proliferation,[2],45%
CN(C)CCCn1cc(C2=C(c3c[nH]c4ccccc34)C(=O)NC2=O)c2ccccc21 [GF109203X],reduction of bFGF induced bFGF/v-myb cell proliferation,[2],30%
TGFα: growth factor TGFα,phenotype / outgrowth of v-myb cells with growth factor,[4],outgrowth exclusively of myeloid cells
CC(C)=CCC/C(C)=C/CC/C(C)=C/CSc1ccccc1C(=O)O [FTS],effect on bFGF induced bFGF/v-myb cell proliferation,[2],neither Ras inhibitor FTS (inhibitor of famesylation) nor src family inhibitor PP-2 had any effect
CN([C@@H](Cc1ccc(OS(=O)(=O)c2cccc3cnccc23)cc1)C(=O)N1CCN(c2ccccc2)CC1)S(=O)(=O)c1cccc2cnccc12 [KN-62],reduction of bFGF induced bFGF/v-myb cell proliferation,[2],Sixty per cent
